Measurements from ChEMBL document CHEMBL6121036, “Evaluation of Cereblon-Directing Warheads for the Development of Orally Bioavailable PROTACs” (J Med Chem, 2025).
≈ marks a conversion by molar mass, not a printed value. Calls of active or inactive are those of the source. No cut-off for these calls is given here.

Columns and labels:
[1] = Effect on NOP53 level in human MV4-11 cells assessed as fold change at 100 nM measured after 4 hrs; type: functional
[2] = Effect on BRD2 level in human MV4-11 cells assessed as fold change at 100 nM measured after 4 hrs; type: functional
[3] = Effect on AURKA level in human MV4-11 cells assessed as fold change at 100 nM measured after 4 hrs; type: functional
[4] = Downregulation of BRD4 protein level in human MV4-11 cells at 100 nM incubated for 4 hrs relative to control; type: functional
[5] = Effect on RNF166 level in human MV4-11 cells assessed as fold change at 100 nM measured after 4 hrs; type: functional
[6] = Effect on FGL2 level in human MV4-11 cells assessed as fold change at 100 nM measured after 4 hrs; type: functional
MV4-11 [7] = assay: Upregulation of MIER1 level in human MV4-11 cells at 100 nM incubated for 30 mins; type: functional, cell-based
[8] = Effect on ZBTB21 level in human MV4-11 cells assessed as fold change at 100 nM measured after 4 hrs; type: functional
[9] = Effect on MCL1 level in human MV4-11 cells assessed as fold change at 100 nM measured after 4 hrs; type: functional
[10] = Effect on CDC42EP3 level in human MV4-11 cells assessed as fold change at 100 nM measured after 4 hrs; type: functional
MV4-11 [11] = assay: Upregulation of ZBTB21 level in human MV4-11 cells at 100 nM incubated for 30 mins; type: functional, cell-based
[12] = biological target: T1, Protein cereblon/Bromodomain-containing protein 4 (Homo sapiens, UniProt O60885+Q96SW2); assay: PROTAC activity at CRBN/Hibit-tagged BRD4 (unknown origin) expressed in HEK293 cells co-expressing LgBiT assessed as degradation of BRD4 incubated for 24 hrs by […] glo-max assay; type: cell-based
[13] = biological target: T1, Protein cereblon/Bromodomain-containing protein 4; assay: PROTAC activity at CRBN/Hibit-tagged BRD4 (unknown origin) expressed in HEK293 cells co-expressing LgBiT assessed as degradation rate incubated for 24 hrs by […] glo-max assay; type: cell-based
[14] = Effect on MYC level in human MV4-11 cells assessed as fold change at 100 nM measured after 4 hrs; type: functional
[15] = biological target: T2, Protein cereblon/Bromodomain-containing protein 2 (Homo sapiens) (UniProt P25440+Q96SW2); assay: PROTAC activity at CRBN/Hibit-tagged CRISPR BRD2 (unknown origin) expressed in HEK293 cells coexpressing LgBiT assessed as degradation of BRD2 by […] glo-max assay relative to control; type: cell-based
[16] = biological target: T2, Protein cereblon/Bromodomain-containing protein 2 (Homo sapiens); assay: PROTAC activity at CRBN/Hibit-tagged CRISPR BRD2 (unknown origin) expressed in HEK293 cells coexpressing LgBiT assessed as degradation of BRD2 measured after 10 to 14 hrs by […] glo-max assay; type: cell-based; settings: time 10-14 hrs
[17] = Kinetic aqueous solubility of the compound at pH 7.4; type: physicochemical; settings: read-out: Kinetic_solubility
[18] = Downregulation of BRD2 protein level in human MV4-11 cells at 100 nM incubated for 4 hrs relative to control; type: functional
MV4-11 [19] = assay: Cytotoxicity against human MV4-11 cells assessed as reduction in cell viability incubated for 72 hrs by cell-titer glo assay; type: functional, cell-based; settings: MV4-11, 72 h
[20] = Effect on CCND3 level in human MV4-11 cells assessed as fold change at 100 nM measured after 4 hrs; type: functional
HD-MB03 = assay: Cytotoxicity against human HD-MB03 cells assessed as reduction in cell viability incubated for 72 hrs by cell-titer glo assay; type: functional, cell-based; settings: HD-MB03, 72 h
[21] = Permeability in MDCK-II cells incubated for 1 hr by UPLC/MS/UV analysis; type: ADME, cell-based, Canis lupus familiaris; settings: dog, read-out: permeability
HEK293 = assay: Cytotoxicity against HEK293 cells expressing LgBiT fused HiBiT-BRD2 measured after 24 hrs by cell titer-glo assay; type: toxicity, cell-based; settings: human, hek293, 24 h
[22] = biological target: T1, Protein cereblon/Bromodomain-containing protein 4; assay: PROTAC activity at CRBN/Hibit-tagged CRISPR BRD4 (unknown origin) expressed in HEK293 cells co-expressing LgBiT assessed as degradation of BRD4 measured after 18 to 24 hrs by […] glo-max assay; type: cell-based; settings: time 18-24 hrs
[23] = biological target: T3, Protein cereblon/Bromodomain-containing protein 3 (Homo sapiens) (UniProt Q15059+Q96SW2); assay: PROTAC activity at CRBN/Hibit-tagged CRISPR BRD3 (unknown origin) expressed in HEK293 cells co-expressing LgBiT assessed as degradation of BRD3 by […] glo-max assay; type: cell-based
[24] = AUC last in female CD1 mouse at 10 mg/kg, po measured upto 24 hrs by LC-MS/MS analysis; type: ADME, organism-based; settings: in vivo
[25] = biological target: T2, Protein cereblon/Bromodomain-containing protein 2 (Homo sapiens); assay: PROTAC activity at CRBN/Hibit-tagged CRISPR BRD2 (unknown origin) expressed in HEK293 cells coexpressing LgBiT assessed as degradation of BRD2 by […] glo-max assay; type: cell-based
[26] = Effect on CCNF level in human MV4-11 cells assessed as fold change at 100 nM measured after 4 hrs; type: functional
[27] = Effect on BRD3 level in human MV4-11 cells assessed as fold change at 100 nM measured after 4 hrs; type: functional
[28] = Effect on PLK1 level in human MV4-11 cells assessed as fold change at 100 nM measured after 4 hrs; type: functional
[29] = Effect on TP53 level in human MV4-11 cells assessed as fold change at 100 nM measured after 4 hrs; type: functional
[30] = Effect on BRD4 level in human MV4-11 cells assessed as fold change at 100 nM measured after 4 hrs; type: functional
[31] = biological target: Protein cereblon (Homo sapiens) (UniProt Q96SW2); assay: Binding affinity to CRBN (unknown origin)
[32] = Stability in mouse plasma assessed as half life by UPLC-MS/MS analysis; type: ADME, cell-free
[33] = Effect on NSA2 level in human MV4-11 cells assessed as fold change at 100 nM measured after 4 hrs; type: functional
[34] = biological target: T3, Protein cereblon/Bromodomain-containing protein 3 (Homo sapiens); assay: PROTAC activity at CRBN/Hibit-tagged CRISPR BRD3 (unknown origin) expressed in HEK293 cells co-expressing LgBiT assessed as degradation of BRD3 measured after 13 to 16 hrs by […] glo-max assay; type: cell-based; settings: time 13-16 hrs
[35] = biological target: T1, Protein cereblon/Bromodomain-containing protein 4; assay: PROTAC activity at CRBN/Hibit-tagged CRISPR BRD4 (unknown origin) expressed in HEK293 cells co-expressing LgBiT assessed as degradation of BRD4 by […] glo-max assay; type: cell-based
[36] = biological target: T3, Protein cereblon/Bromodomain-containing protein 3 (Homo sapiens); assay: PROTAC activity at CRBN/Hibit-tagged CRISPR BRD3 (unknown origin) expressed in HEK293 cells co-expressing LgBiT assessed as degradation of BRD3 by […] glo-max assay relative to control; type: cell-based
[37] = Effect on PLAU level in human MV4-11 cells assessed as fold change at 100 nM measured after 4 hrs; type: functional
[38] = biological target: T4, Protein cereblon/Bromodomain-containing protein 4/DNA damage-binding protein 1 (Homo sapiens) (UniProt O60885+Q96SW2+Q16531); assay: Binding affinity to his-tagged CRBN/DDB1/GST-tagged BRD4 (49 to 170 residues)(unknown origin) assessed as ternary complex formation (AUC) incubated for 1 hr by luminescence based Alphascreen assay; type: protein assay
[39] = Cmax in female CD1 mouse at 10 mg/kg, po measured upto 24 hrs by LC-MS/MS analysis; type: ADME, organism-based; settings: in vivo
[40] = Effect on FYTTD1 level in human MV4-11 cells assessed as fold change at 100 nM measured after 4 hrs; type: functional
[41] = Downregulation of BRD3 protein level in human MV4-11 cells at 100 nM incubated for 4 hrs relative to control; type: functional
[42] = biological target: T1, Protein cereblon/Bromodomain-containing protein 4; assay: PROTAC activity at CRBN/Hibit-tagged BRD4 (unknown origin) expressed in HEK293 cells co-expressing LgBiT assessed as degradation of BRD4 incubated for 24 hrs by […] glo-max assay relative to control; type: cell-based
[43] = Effect on ZFP36L2 level in human MV4-11 cells assessed as fold change at 100 nM measured after 4 hrs; type: functional
[44] = biological target: T1, Protein cereblon/Bromodomain-containing protein 4; assay: PROTAC activity at CRBN/Hibit-tagged CRISPR BRD4 (unknown origin) expressed in HEK293 cells co-expressing LgBiT assessed as degradation of BRD4 by […] glo-max assay relative to control; type: cell-based
[45] = Half life in mouse at 50 mg/kg, ip; type: ADME, organism-based; settings: in vivo
[46] = Metabolic stability in mouse liver microsomes assessed as half life; type: ADME, Microsome; settings: liver microsomes
[47] = biological target: T4, Protein cereblon/Bromodomain-containing protein 4/DNA damage-binding protein 1 (Homo sapiens); assay: Binding affinity to his-tagged CRBN/DDB1/GST-tagged BRD4 (49 to 170 residues)(unknown origin) assessed as ternary complex formation by measuring AUC incubated for 1 hr by luminescence based Alphascreen assay; type: protein assay

For `Cc1sc2c(c1C)C(c1ccc(Cl)cc1)=N[C@@H](CC(=O)N1CCC(CN3CCN(c4ccc5c(c4)oc(=O)n5C4CCC(=O)NC4=O)CC3)CC1)c1nnc(C)n1-2` (stereo partly drawn), the “fold change (FC)” value [1] was -0.92, the “fold change (FC)” value [2] was -3.2 and the “fold change (FC)” value [3] was -0.94. The Activity [4] was 90%, the “fold change (FC)” value [5] was -0.64 and the “fold change (FC)” value [6] was -0.81. For the same compound, the Activity (MV4-11 [7]) was “Active”, the “fold change (FC)” value [8] was -1.77 and the “fold change (FC)” value [9] was -1.14. The “fold change (FC)” value [10] was -1.17, the Activity (MV4-11 [11]) was “Active” and the DC50 [12] was 250 pM. The Activity [13] was 0.395 fRLU/hr, the “fold change (FC)” value [14] was -2.38 and the Activity [15] was over 95%. The Activity [16] was “Active”, the solubility kinetic [17] was 14.8 µM (≈ 12 µg/mL) and the Activity [18] was 90%. The IC50 (MV4-11 [19]) was 40 pM, the “fold change (FC)” value [20] was -1.03 and the IC50 (HD-MB03) was 380 pM. The Papp at 1 h [21] was 1.2 ×10⁻⁶ cm/s, the Activity (HEK293) was “Non-toxic” and the Activity [22] was “Active”. The Activity [23] was “Active”, the AUC(0-t) at 24 h [24] was 181 ng·h/mL and the Activity [25] was “Active”. The “fold change (FC)” value [26] was -1.74, the “fold change (FC)” value [27] was -4.05 and the “fold change (FC)” value [28] was -0.8. For the same compound, the “fold change (FC)” value [29] was 1.94, the “fold change (FC)” value [30] was -3.75 and the Activity [31] was “Active”. The half-life [32] was 822 min, the “fold change (FC)” value [33] was -1.09 and the Activity [34] was “Active”. For the same compound, the Activity [35] was “Active”, the Activity [36] was over 95% and the “fold change (FC)” value [37] was -1.13. The Activity [38] was “Active”, the Cmax [39] was 70 ng/mL and the “fold change (FC)” value [40] was -1.64. For the same compound, the Activity [41] was 90%, the Emax [42] was 94% and the “fold change (FC)” value [43] was -1.14. For the same compound, the Activity [44] was over 90%.

`Cc1sc2c(c1C)C(c1ccc(Cl)cc1)=N[C@@H](CC(=O)NCCCCCNC(=O)COc1ccc(C3CCC(=O)NC3=O)cc1)c1nnc(C)n1-2` (stereo partly drawn) gave a half-life [45] of 25.8 min, a DC50 [12] of 25000 pM and a solubility kinetic [17] of 24.4 µM (≈ 17.8 µg/mL). The Activity (HEK293) was “Non-toxic”, the half-life [46] was 2.4 min and the AUC [47] was 298000. The Emax [42] was 75.7%.
